# Results as given in US8552005B2, “(EN) 3-sulfonyl-pyrazolo[1,5-a] pyrimidines / antagonists of serotonin 5-HT6 receptors, methods for the production and the use thereof” (Avincuro Pharmaceuticals, Inc., priority 2008, dated 2013).
# Assays:
# [1] = molecular target: T1, 5-HT6 receptor (Homo sapiens (Human), UniProt P50406); test: Antagonistic activity towards 5-HT6 receptors: inhibition of serotonin-induced intracellular cAMP (LANCE cAMP) in HEK 293 cells; type: cell-based; conditions: for inhibition at 10 µM: HEK293, read-out: % inhibition of 5-HT6 receptors (I, %), 10 μM solutions, serotonin-induced cAMP; for IC50: serotonin-stimulated intracellular cAMP production, read-out: IC50 in the setting of functional assay
# T1 sequence (P50406 whole entry): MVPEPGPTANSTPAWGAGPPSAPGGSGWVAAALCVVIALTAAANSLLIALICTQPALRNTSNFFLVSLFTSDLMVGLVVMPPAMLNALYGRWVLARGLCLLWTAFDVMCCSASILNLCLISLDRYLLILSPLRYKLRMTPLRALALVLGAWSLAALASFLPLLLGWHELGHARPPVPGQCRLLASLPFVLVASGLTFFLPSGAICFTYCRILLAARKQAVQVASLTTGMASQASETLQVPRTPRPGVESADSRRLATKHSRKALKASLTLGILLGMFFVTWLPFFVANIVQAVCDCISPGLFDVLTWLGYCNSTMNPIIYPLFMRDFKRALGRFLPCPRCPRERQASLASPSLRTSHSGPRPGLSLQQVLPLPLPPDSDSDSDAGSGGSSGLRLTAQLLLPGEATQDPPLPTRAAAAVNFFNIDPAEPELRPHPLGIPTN
# Description: Determination of antagonistic activity of compounds of general formula 1 towards 5-HT6 receptors. Compounds of general formula 1 were tested for their ability to prevent 5-HT6 receptor activation by serotonin. HEK 293 cells (cells of human embryo's kidney) with artificially expressed 5-HT6 receptor, activation of which by serotonin leads to increasing the concentration of intracellular cAMP were used. The content of intracellular cAMP was determined using reagent kit LANCE cAMP (PerkinElmer) according to the method described by the manufacturer of the kit [http://las.perkinelmer.com/content/Manuals/MAN_LANCEcAMP384KitUser.pdf].
# Effectiveness of compounds was estimated by their ability to reduce the content of intracellular cAMP induced by serotonin.
# [2] = molecular target: T1, 5-HT6 receptor; test: Competitive radioligand binding ([3H] Lysergic acid diethylamide) to serotonin 5-HT6 receptors, HeLa cell membranes; conditions: 1.5 nM [3H] Lysergic acid diethylamide, 120 min at 37° C.; for IC50: read-out: IC50 in the setting of competitive binding; for Ki: read-out: Ki in the setting of competitive binding
# Description: Determination of activity of serotonin 5-HT6 receptor antagonists of the general formula 1 in the setting of competitive binding to serotonin 5-HT6 receptors.
# Screening of disclosed compounds for their potential ability to interact with serotonin 5-HT6 receptor was carried out by method of radioligand binding. For this purpose membrane species were prepared from expressing recombinant human 5-HT6 receptor HeLa cells by means of their homogenization in glass homogenizer with subsequent separation of plasmatic membranes from cell nucli, mitochondria's and cell wreckages by differential centrifugation. […] Mol. Pharmacol. 43:320-327, 1993]. […] After incubation the samples were filtered in vacuo on glass-microfiber filters G/F (Millipor, USA), filters were washed three times with cold solution of medium and radioactivity was measured by scintillation counter MicroBeta 340 (PerkinElmer, USA). […] Binding of tested compounds to the receptor was determined by their ability to displace the radioligand and expressed in percent of displacement. The percent of displacement was calculated according to the following equation:
# [formula] wherein: TA—was overall radioactivity in the presence of radioligand only, CA—was radioactivity in the presence of radioligand and tested compound and NA—was radioactivity in the presence of radioligand and Serotonin (5 μM).
Structure (SMILES),inhibition at 10 µM [1],IC50 [1],IC50 [2],Ki [2]
CSc1nn2c(C)cc(C)nc2c1S(=O)(=O)c1ccc(N(C)C)cc1 [1.1(19)],87%,,,
CSc1nn2c(-c3ccccc3)cc(C)nc2c1S(=O)(=O)c1ccccc1 [1(1)],88%,,,
CSc1nn2c(C)cc(C)nc2c1S(=O)(=O)c1ccc(Cl)cc1 [1.1(16)],94%,230 nM,,
"CSc1nn2c(C)cc(C)nc2c1S(=O)(=O)c1ccc(F)cc1 [1.1(7), 5,7-dimethyl-2-methylsulfanyl-3-(4-fluorophenylsulfonyl)pyrazolo[1,5-a]pyrimidine]",101%,112 nM,< 10 nM,
Cc1cc(C)n2nc(C)c(S(=O)(=O)c3ccncc3)c2n1 [1(2)],77%,,,
Cc1cc(C)n2nc(C)c(S(=O)(=O)c3cccs3)c2n1 [1(4)],69%,,,
Cc1cc(C)n2nc(C)c(S(=O)(=O)c3ccccc3)c2n1 [1.1(13)],86%,,147 nM,68.4 nM
"CCSc1nn2c(C)cc(C)nc2c1S(=O)(=O)c1cccc(Cl)c1 [1.1(12), 5,7-dimethyl-2-ethylsulfanyl-3-(3-chlorophenylsulfonyl)pyrazolo[1,5-a]pyrimidine]",101%,,,
Cc1cc(C)n2nc(C)c(S(=O)(=O)c3cccnc3)c2n1 [1(3)],78%,,,
"CCSc1nn2c(C)cc(C)nc2c1S(=O)(=O)c1ccc(F)cc1 [1.1(8), 5,7-dimethyl-2-ethylsulfanyl-3-(4-fluorophenylsulfonyl)pyrazolo[1,5-a]pyrimidine]",102%,,,
COc1ccc(S(=O)(=O)c2c(SC)nn3c(C)cc(C)nc23)cc1 [1.1(17)],65.4%,440 nM,,
Cc1cc(C)n2nc(C)c(S(=O)(=O)c3ccc(F)cc3)c2n1 [1.1(21)],78%,,,
"CSc1nn2c(C)cc(C)nc2c1S(=O)(=O)c1ccccc1 [1.1(5), 5,7-dimethyl-2-methylsulfanyl-3-(phenylsulfonyl)pyrazolo[1,5-a]pyrimidine]",104%,30 nM,4.61 nM,2.14 nM
Cc1cc(C)n2nc(C)c(S(=O)(=O)c3cccc(F)c3)c2n1 [1.1(14)],88%,,,
CSc1nn2c(C)cc(-c3ccccc3)nc2c1S(=O)(=O)c1ccccc1 [1(5)],68%,,,
CSc1nn2c(C)cc(C)nc2c1S(=O)(=O)c1ccc(F)c(Cl)c1 [1.1(20)],100%,,,
CCSc1nn2c(C)cc(C)nc2c1S(=O)(=O)c1ccc(C)cc1 [1.1(15)],99%,80 nM,,
CCSc1nn2c(C)cc(C)nc2c1S(=O)(=O)c1ccc(OC)cc1 [1.1(18)],61%,320 nM,,
"CCSc1nn2c(C)cc(C)nc2c1S(=O)(=O)c1ccccc1 [1.1(6), 5,7-dimethyl-2-ethylsulfanyl-3-(phenylsulfonyl)pyrazolo[1,5-a]pyrimidine]",104%,50 nM,,
Cc1cc(C)n2nc(OCCO)c(S(=O)(=O)c3ccccc3)c2n1 [1.1(2)],82%,,477 nM,222 nM
"CCSc1nn2c(C)cc(C)nc2c1S(=O)(=O)c1cccc(F)c1 [1.1(10), 5,7-dimethyl-2-ethylsulfanyl-3-(3-fluorophenylsulfonyl)pyrazolo[1,5-a]pyrimidine]",103%,,,
Cc1cc(C)n2nc(OCCO)c(S(=O)(=O)c3ccc(F)cc3)c2n1 [1.1(4)],73%,,,
"Cc1cc(C)n2ncc(S(=O)(=O)c3ccccc3)c2n1 [1.1(1), 5,7-dimethyl-3-(phenylsulfonyl)pyrazolo[1,5-a]pyrimidine]",78%,> 1000 nM,510 nM,237 nM
"CSc1nn2c(C)cc(C)nc2c1S(=O)(=O)c1cccc(Cl)c1 [1.1(11), 5,7-dimethyl-2-methylsulfanyl-3-(3-chlorophenylsulfonyl)pyrazolo[1,5-a]pyrimidine]",101%,20 nM,,
Cc1cc(C)n2nc(OCCN(C)C)c(S(=O)(=O)c3ccccc3)c2n1 [1.1(22)],66%,,,
"CSc1nn2c(C)cc(C)nc2c1S(=O)(=O)c1cccc(F)c1 [1.1(9), 5,7-dimethyl-2-methylsulfanyl-3-(3-fluorophenylsulfonyl)pyrazolo[1,5-a]pyrimidine]",100%,25 nM,,
